Data on two compounds can be found in patent publication US5641774A, “Compounds useful as antiproliferative agents and garft inhibitors” (Agouron Pharmaceuticals, Inc., priority 1995, dated 1997).

In one data set the test system is GARFT. The settings on record: Muggia, New Drugs, Concepts and Results in Cancer Chemotherapy, 1992; cited from earlier work.
Data set [1] relates to C3H/BA mammary adenocarcinoma. As to the kind of experiment: In vivo antitumor activity, C3H/BA mammary adenocarcinoma implanted subcutaneously in C3H/He female mice. As to conditions: day 14. Here is the method: On day zero, 2 mm^2 trocar fragments of C3H/BA mammary adenocarcinoma were implanted subcutaneously in the axillary region into groups of six C3H/He female mice. Starting on day 1, the test compound was administered intraperitoneally in 40% Encapsin given once daily for nine days. Control animals received identical treatment without test compound. The percentage of inhibition was calculated by comparing the mass of the control tumors (receiving diluent only) on day 14 to those of animals receiving test compound.

Another data set relates to CCRF-CEM. As to the kind of experiment: In vitro growth inhibition of CCRF-CEM cells, Example 2 (MTT). It counts as cell-based. The settings on record: Homo sapiens, continuous exposure (title: 72-hour; method: 5 days), mean IC50, read-out: IC50 Cell Culture CCRF-CEM. Here is the method: All cultures were maintained at 37° C. 5% air-CO2 in a humidified incubator.
Stock solutions of the inhibitors were prepared in 10 mM sodium bicarbonate in water and stored in i ml aliquots at -20° C. for cell culture experiments. Cell growth inhibition was measured by a modification of the method of Mosmann, J. Immunol. Methods 65 (1983), 55-63.
Mid-log phase cells of each cell line were diluted to 18,500 cells/ml in fresh RPMI growth medium (Mediatech, Washington, D.C.) supplemented with dialyzed fetal calf serum (Hyclone Laboratories Inc., Logan, Utah) and then aliquotted into columns 2 through 12 of 96-well microtiter plates. Column 1 was filled with the same volume ([…]) of fresh medium, without cells, for use as a blank. The plates were then placed in a 37° C., 5% air-CO2 incubator. After 1 to 4 hours, plates were removed from the incubator followed by addition of Compound (21) at 10× final concentration, […] in binary dilutions, to columns 12 to 4. […] The extent of metabolized MTT was measured spectrophotometrically at 540 nm on a Molecular Devices Vmax™ kinetic microplate reader. The concentration of drug required to reduce cell growth by 50% as measured by MTT metabolism was determined by interpolation between the O.D. (minus blank) immediately above and below 50% of control O.D. (minus blank). […]

The next data set concerns 6C3HED lymphosarcoma. Description: In vivo antitumor activity, 6C3HED lymphosarcoma implanted subcutaneously in C3H/He female mice. Here is the method:
On day zero, 2 mm^2 trocar fragments of 6C3HED lymphosarcoma were implanted subcutaneously in the axillary region into groups of six C3H/He female mice. Starting on day 1, the test compound was administered intraperitoneally in 40% Encapsin given once daily for nine days. Control animals received identical treatment without test compound. The percentage inhibition given in Table 5 below was calculated by comparing the mass of the control tumors (receiving diluent only) on day 11 to those of animals receiving test compound.

`Nc1nc2c(c(=O)[nH]1)CC(CCc1ccc(C(=O)N[C@@H](CCC(=O)O)C(=O)O)cc1)CN2` (some centres unmarked) [5,10-dideazatetrahydrofolic acid]: the “GARFT inhibition and antitumor activity (literature)” value with GARFT is on record as “specific tight binding inhibitor of GARFT, 5,10-dideazatetrahydrofolic acid, has been reported to show antitumor activity”.

The term IC50 denotes the point on the concentration scale where inhibition reaches its midpoint. As to `Nc1nc2c(c(=O)[nH]1)SC(CCc1ccc(C(=O)N[C@@H](CCC(=O)O)C(=O)O)s1)CN2` (stereo partly drawn) [Compound 21, 4-[2-(2-Amino-4-oxo-4,6,7,8-tetrahydro-3H-pyrimido[5,4-6][1,4]thiazin-6-yl)-ethyl]-2,5-thienoylamino-L-glutamic acid], the “% Inhibition (tumor mass)” value in data set [1] (5 mg/kg i.p. once daily for nine days) is 16%; in data set [1] (10 mg/kg i.p. once daily for nine days) it was 84%; in data set [1] (20 mg/kg i.p. once daily for nine days) it was 100%; with 6C3HED lymphosarcoma (12.5 mg/kg i.p. once daily for nine days, day 11) it was 100%; in the data set with 6C3HED lymphosarcoma (25 mg/kg i.p. once daily for nine days, day 11), 100%; in the data set with 6C3HED lymphosarcoma (50 mg/kg i.p. once daily for nine days, printed as a word in the % Inhibition column) it was “toxic”. Also, in the data set on CCRF-CEM, the IC50 was 4.3 nM.
